Source: patent US11448643B2, “Methods to specifically profile protease activity at lymph nodes” (Massachusetts Institute of Technology, priority 2016, dated 2022)
Square brackets hold non-standard residues; d marks the D form. Ends that are not written are not given here. Pip = O=C(O)[C@@H]1CCCCN1

Legend:
[1] = test system: homogenized lymph nodes from vaccinated mice; test: Ex vivo peptide screen: cleavage of fluorogenic protease substrates by homogenized lymph nodes from vaccinated vs control mice; format: biochemical; conditions: 58 fluorogenic substrates; 384 well plates; fluorescence over several hours; FIG. 7
Protocol: Substrate cleavage of 58 peptides was measured. Signal reported is the fold difference in cleavage between vaccinated mice and PBS-injected mice.
Mice were vaccinated in the same manner as described above. Lymph nodes from vaccinated or non-vaccinated mice were harvested. The harvested lymph nodes were homogenized and added to the 58 fluorogenic protease substrates (SEQ ID NOs: 2-59) in 384 well plates. Fluorescent signal was monitored over the period of several hours for each substrate in the well plates. Fluorescence of reporter molecules in lymph nodes of vaccinated mice was compared to non-vaccinated mice (injected with PBS) and reported as the fold difference in cleavage of each substrate between vaccinated and control mice. […] The substrate used urinary monitoring experiment described above is referred to as Q7 (PLGVRGK; SEQ ID NO: 76).

[2] = test system: metalloproteases in the LN; conditions: mice vaccinated with amph-EGP plus lipo-CpG and boosted; urine collected 3 hours after injection; ELISA; FIG. 6
Protocol: Mice were injected subcutaneously and urine for analysis was collected 3 h post-administration.
Mice were later boosted to engage both innate and adaptive immunity. Subsequently, mice were administered a LN-targeting pro-diagnostic reagent comprising a LN-specific enzyme susceptible domain (e.g., protease substrate). Cleavage of the pro-diagnostic reagent by metalloproteases in the LN results in production of signature molecules (ligand encoded tags) that are released into the urine of the subject (e.g., mouse). Urine was collected from the mice 3 hours after injection. Reporter signal was quantified by ELISA.

Substance | rank of substrate cleavage (fold difference vaccinated vs control mice) [1] | urinary reporter signal in vaccinated mice compared to PBS-injected mice [2]
GGVPRG (also: fluorogenic labels) [PQ12] | two highest cleaved substrates | –
f(Pip)KSGGG ([dF][Pip]KSGGG; also: fluorogenic labels) [Q10, fluorogenic protease substrate, f is D-Phe, Pip is pipecolic acid] | two highest cleaved substrates | –
Albumin-GPLGVRGKGK(Biotin)eGvndneeGffsarK(FAM) [Albumin-B7] | – | significantly increased
